Measurements published in article PMC6804193, “Extending the Inhibition Profiles of Coumarin-Based Compounds Against Human Carbonic Anhydrases: Synthesis, Biological, and In Silico Evaluation” (Molecules, 2019).
Like-named read-outs stand apart in the source and are kept apart here.

What was measured:
Assay in all cases: stopped-flow CO2 hydrase assay
Assay type in all cases: biochemical
hCA IX = target: T1, hCA IX (Homo sapiens, UniProt Q16790)
T1 construct: gene CA9; recombinant, obtained in-house
Text: stopped-flow CO2 hydrase assay on hCA IX

hCA I = target: T2, hCA I (Homo sapiens, UniProt P00915)
T2 construct: gene CA1; recombinant, obtained in-house; cytosolic isoform
Text: stopped-flow CO2 hydrase assay on hCA I

hCA XII [1] = target: T3, hCA XII (Homo sapiens, UniProt O43570); settings: read-out: KI^* (nM) / hCA II
T3 construct: gene CA12; recombinant, obtained in-house

hCA II = target: T4, hCA II (Homo sapiens, UniProt P00918)
T4 construct: gene CA2; recombinant, obtained in-house; cytosolic isoform
Text: stopped-flow CO2 hydrase assay on hCA II

hCA XII [2] = target: T3, hCA XII; settings: read-out: KI^* (nM) / hCAXII
Text: stopped-flow CO2 hydrase assay on hCA XII

[3] = CO2 […], […] Hepes pH […] Na2SO4, […] h preincubation at room temperature (prodrug inhibitors)

T3 sequence (O43570 25-354): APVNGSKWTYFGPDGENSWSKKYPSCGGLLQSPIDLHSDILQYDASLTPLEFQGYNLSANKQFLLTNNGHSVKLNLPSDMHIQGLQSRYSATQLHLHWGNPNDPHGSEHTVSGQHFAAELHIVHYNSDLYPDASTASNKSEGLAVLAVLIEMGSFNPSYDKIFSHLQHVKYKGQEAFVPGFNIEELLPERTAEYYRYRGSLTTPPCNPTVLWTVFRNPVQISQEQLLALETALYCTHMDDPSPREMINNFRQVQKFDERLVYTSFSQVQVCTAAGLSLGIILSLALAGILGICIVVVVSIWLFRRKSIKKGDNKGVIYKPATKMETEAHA
T2 sequence (P00915 2-261): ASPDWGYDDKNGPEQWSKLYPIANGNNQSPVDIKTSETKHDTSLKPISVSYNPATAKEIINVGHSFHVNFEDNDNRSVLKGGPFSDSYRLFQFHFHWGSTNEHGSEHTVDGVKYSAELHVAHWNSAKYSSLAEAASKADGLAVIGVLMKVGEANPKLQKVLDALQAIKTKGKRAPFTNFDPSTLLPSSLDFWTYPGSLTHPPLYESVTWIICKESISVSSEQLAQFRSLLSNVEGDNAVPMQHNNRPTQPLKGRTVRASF

| Ki (hCA IX) [nM] | Ki (hCA I) [nM] | Ki (hCA XII [1]) [nM] | Ki (hCA II) [nM] | Ki (hCA IX; [3]) [nM] | Ki (hCA XII [2]; [3]) [nM] | Ki (hCA I; [3]) [nM] | Ki (hCA II; [3]) [nM] | Ki (hCA XII [2]) [nM] | SMILES |
| --- | --- | --- | --- | --- | --- | --- | --- | --- | --- |
| 175 | > 10000 | > 10000 | > 10000 | – | – | – | – | – | COc1ccc2occ(C3CC(=O)Oc4ccc(C(C)=O)c(O)c43)c(=O)c2c1 (racemic) [compound 8, 3-(6-Acetyl-5-hydroxy-2-oxochroman-4-yl)-6-methoxy-4H-chromen-4-one] |
| 171 | > 10000 | > 10000 | > 10000 | – | – | – | – | – | CCCc1cc2c(=O)c(-c3ccc4c(c3)OCCO4)coc2cc1OCc1cc(=O)oc2cc(C)cc(C)c12 [compound 9, coumarin 9] |
| 25.7 | > 10000 | – | > 10000 | – | – | – | – | 604 | Cc1cc(=O)oc2c(C)c(O)c(C(=O)/C=C/N(C)C)cc12 [compound 10, coumarin 10] |
| 9.4 | > 10000 | – | > 10000 | – | – | – | – | 591 | O=C(Nc1ccc2oc(=O)ccc2c1)[C@@H]1CSC2c3ccccc3C(=O)N21 (stereo partly drawn) [compound 11, coumarin 11] |
| 241 | > 10000 | – | > 10000 | – | – | – | – | 432 | O=C(NN1C(=O)/C(=C/C2=Cc3ccccc3OC2)SC1=S)c1cccnc1 [compound 12, 2H-chromene 12] |

Further lines, the compound ahead of its results:

| SMILES | Ki (hCA IX) [nM] | Ki (hCA I) [nM] | Ki (hCA XII [1]) [nM] | Ki (hCA II) [nM] | Ki (hCA IX; [3]) [nM] | Ki (hCA XII [2]; [3]) [nM] | Ki (hCA I; [3]) [nM] | Ki (hCA II; [3]) [nM] | Ki (hCA XII [2]) [nM] |
| --- | --- | --- | --- | --- | --- | --- | --- | --- | --- |
| COc1ccc(C2CC(=O)Oc3ccc(C(C)=O)c(O)c32)cc1OCCc1ccc2c(c1)CCO2 (racemic) [compound 5, 6-Acetyl-4-(3-(2-(2,3-dihydrobenzofuran-5-yl)ethoxy)-4-methoxyphenyl)-5-hydroxychroman-2-one] | 172 | > 10000 | > 10000 | > 10000 | – | – | – | – | – |
| COc1cc(C2CC(=O)Oc3ccc(C(C)=O)c(O)c32)ccc1O (racemic) [compound 6, 6-Acetyl-5-hydroxy-4-(4-hydroxy-3-methoxyphenyl)chroman-2-one] | 189 | > 10000 | > 10000 | > 10000 | – | – | – | – | – |
| CC(=O)c1ccc2c(c1O)C(c1ccccc1OCc1ccccn1)CC(=O)O2 (racemic) [compound 7, 6-Acetyl-5-hydroxy-4-(2-(pyridin-2-ylmethoxy)phenyl)chroman-2-one] | 139 | > 10000 | > 10000 | > 10000 | – | – | – | – | – |
| CC(=NO)c1c(OCc2ccc(Cl)cc2)ccc2c(C)cc(=O)oc12 [compound 1, 7-((4-Chlorobenzyl)oxy)-8-(1-(hydroxyimino)ethyl)-4-methyl-2H-chromen-2-one] | – | – | – | – | 49.3 | 558 | > 10000 | > 10000 | – |
| Cc1c(O)c(CN(C)C)cc2c(-c3cc4ccccc4oc3=O)cc(=O)oc12 [compound 2, 6’-((Dimethylamino)methyl)-7’-hydroxy-8’-methyl-2H,2’H-[3,4’-bichromene]-2,2’-dione] | 85.6 | > 10000 | > 10000 | > 10000 | – | – | – | – | – |
| O=c1cc(-c2cc3ccc(O)cc3oc2=O)c2ccc(O)c(O)c2o1 [compound 3, 7,7’,8’-Trihydroxy-2H,2’H-[3,4’-bichromene]-2,2’-dione] | 133 | > 10000 | > 10000 | > 10000 | – | – | – | – | – |
| CCOC(=O)CC(C1=Cc2ccccc2OC1)c1oc(CO)cc(=O)c1O (stereo not drawn) [compound 4, Ethyl 3-(2H-chromen-3-yl)-3-(3-hydroxy-6-(hydroxymethyl)-4-oxo-4H-pyran-2-yl) propanoate] | 243 | > 10000 | – | > 10000 | – | – | – | – | 467 |
